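Grown in 96-well plates, cells were treated for 48 hours with each compound at five concentrations. Insufficient inhibition: endpoint recorded as highest concentration tested. GI50 = concentration required for 50% inhibition of growth.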 The source made the active and inactive calls. No stated cut-off is given here; in the data, active = GI50 up to about 1.1 µM and inactive = higher.
Experiments:
Test in all cases: growth of human tumour cells (NCI), 48 h
SF-539 = tested on: SF-539
MDA-MB-435 = tested on: MDA-MB-435
SN12C = tested on: SN12C
NCI-H460 = tested on: NCI-H460
RXF 393 = tested on: RXF 393
NCI/ADR-RES = tested on: NCI/ADR-RES
HOP-62 = tested on: HOP-62
RPMI-8226 = tested on: RPMI-8226
MOLT-4 = tested on: MOLT-4
OVCAR-8 = tested on: OVCAR-8
SK-OV-3 = tested on: SK-OV-3
EKVX = tested on: EKVX
IGROV-1 = tested on: IGROV-1
SF-295 = tested on: SF-295
K562 = tested on: K562
TK-10 = tested on: TK-10
ACHN = tested on: ACHN
NCI-H23 = tested on: NCI-H23
MDA-N = tested on: MDA-N
SR = tested on: SR

Measured: GI50

O=C1C=C(c2c(O)ccc3ccccc23)c2ccccc2C1=O
inactive: SF-539 2.09 µM | MDA-MB-435 3.01 µM | SN12C 2.58 µM | NCI-H460 6.32 µM | RXF 393 2.06 µM | NCI/ADR-RES 3.15 µM | HOP-62 13 µM | RPMI-8226 2.35 µM | MOLT-4 1.72 µM | OVCAR-8 1.89 µM | SK-OV-3 10.7 µM | EKVX 3.15 µM | IGROV-1 3.3 µM | SF-295 4.19 µM | K562 3.08 µM | TK-10 12.1 µM | ACHN 3.44 µM | NCI-H23 2.15 µM | MDA-N 2 µM

Oc1ccc2c(c1)OCC(O)(c1ccccc1O)C2 (stereo not drawn)
inactive: SF-539 > 100 µM | MDA-MB-435 > 100 µM | SN12C > 100 µM | NCI-H460 > 100 µM | RXF 393 > 100 µM | NCI/ADR-RES > 100 µM | HOP-62 > 100 µM | RPMI-8226 > 100 µM | MOLT-4 > 100 µM | OVCAR-8 > 100 µM | SK-OV-3 > 100 µM | EKVX > 100 µM | IGROV-1 > 100 µM | SF-295 > 100 µM | K562 > 100 µM | TK-10 > 100 µM | ACHN > 100 µM | NCI-H23 > 100 µM | MDA-N > 100 µM

C=C(C)C1CC2(C)C(C)CC(OC(=O)/C(C)=C\C)CC2C(OC(=O)/C(C)=C\C)C1O (stereo not drawn)
inactive: SF-539 > 100 µM | SR 19.8 µM | MDA-MB-435 55.3 µM | SN12C 62.2 µM | NCI-H460 45.1 µM | NCI/ADR-RES > 100 µM | MOLT-4 25.1 µM | OVCAR-8 > 100 µM | SK-OV-3 > 100 µM | EKVX 67 µM | IGROV-1 66.2 µM | K562 > 10 µM | TK-10 > 100 µM | ACHN 32.9 µM | NCI-H23 61.9 µM | MDA-N 55.8 µM

COC(=O)c1ccc2c(c1)CC1(C2)Cc2cc3c(cc2C1=O)CCC3 (stereo not drawn)
inactive: SF-539 > 100 µM | MDA-MB-435 23.8 µM | SN12C 22 µM | NCI-H460 37.2 µM | RXF 393 30.1 µM | NCI/ADR-RES 22 µM | HOP-62 46.5 µM | RPMI-8226 13.2 µM | MOLT-4 10.9 µM | OVCAR-8 31.6 µM | SK-OV-3 98.6 µM | EKVX 61.2 µM | IGROV-1 44.1 µM | SF-295 56.5 µM | K562 17.5 µM | TK-10 54.1 µM | ACHN 34.9 µM | NCI-H23 43.6 µM | MDA-N 21.1 µM

Source: ChEMBL document CHEMBL1201862, “PubChem BioAssay data set” (2004)
